Reference: patent US9828390B2, “Tetrahydropyrrolo[3,4-D][1,3]thiazine-derivative as BACE inhibitor” (Eli Lilly and Company, priority 2014, dated 2017)

Assay: Crystal form stability versus relative humidity
Type: physicochemical

Crystal form stability (room temperature and relative humidity less than about 15%)	Crystal form stability (room temperature and relative humidity greater than about 15%)	Compound
stable crystal form		COc1cnc(C(=O)Nc2ccc(F)c([C@]34CN(c5ncc(F)cn5)C[C@H]3CSC(N)=N4)c2)cn1 [Example 1A, Crystalline Form 1 N-[3-[(4aR,7aS)-2-Amino-6-(5-fluoropyrimidin-2-yl)-4,4a,5,7-tetrahydropyrrolo[3,4-d][1,3]thiazin-7a-yl]-4-fluoro-phenyl]-5-methoxy-pyrazine-2-carboxamide]
	stable crystal form	COc1cnc(C(=O)Nc2ccc(F)c([C@]34CN(c5ncc(F)cn5)C[C@@H]3CN=C(N)S4)c2)cn1.O [Example 1B, Crystalline Form 2 N-[3-[(4aR,7aS)-2-Amino-6-(5-fluoropyrimidin-2-yl)-4,4a,5,7-tetrahydropyrrolo[3,4-d][1,3]thiazin-7a-yl]-4-fluoro-phenyl]-5-methoxy-pyrazine-2-carboxamide (hydrated)]
